{
  "source": "patent US20110233810A1",
  "about": "“ANTIMICROBIAL PLASTIC COMPOSITIONS AND METHODS FOR PREPARING SAME” (W. M. Barr & Company, priority 2010, published 2011)",
  "key": {"Staphylococcus aureus": {"system": "Staphylococcus aureus", "test": "Zone of Inhibition testing AATCC-147 (modified), pellets in agar", "assay_type": "cell-based", "conditions": "text summary of Table VIII", "protocol": "A set of AETs run measured Zone of Inhibition, ZOI (AATCC-147) and pellets from runs 1 to 5 were used. Pellets were placed in an agar growth medium that had been streaked with parallel lines of Staphylococcus aureus and incubated for 24 hours at 37° C. The final plates were photographed and measured for length of ZOI in mm."}, "[1]": {"conditions": "monomeric form; cited from earlier work"}, "[2]": {"conditions": "heavy gauge vinyl pool liner and film of vinyl baby pants; cited from earlier work"}, "Rat": {"system": "Rat", "conditions": "cited from earlier work"}, "Rabbit": {"system": "Rabbit", "conditions": "cited from earlier work"}},
  "data": [
    {"smiles": "Oc1cc(Cl)ccc1Oc1ccc(Cl)cc1Cl", "note": "[TRICLOSAN, 2,4,4′-trichloro-2′-hydroxy diphenol ether]", "values": [
      {"measurement": "ZOI (in words)", "setting": "Staphylococcus aureus", "result": "significant ZOI"}
    ]},
    {"smiles": "CCCCCCCCCCCCCCCCCC[N+](C)(C)CCC[Si](OC)(OC)OC.[Cl-]", "note": "[Ref #1, 3-(trimethoxysilyl) propyl-N-octadecyl-N,N-dimethyl ammonium chloride]", "values": [
      {"measurement": "Vapor pressure", "setting": "[1]", "result": "5.8 × 10^−14 mmHg"}
    ]},
    {"smiles": "c1ccc2c(c1)Oc1ccccc1[As]2O[As]1c2ccccc2Oc2ccccc21", "note": "[OBPA, 10,10′-oxybisphenoxarsine]", "values": [
      {"measurement": "Leaching from plastics", "setting": "[2]", "result": "leaches very slowly"},
      {"measurement": "Oral LD50", "setting": "Rat", "result": 37, "unit": "mg/kg"},
      {"measurement": "Dermal LD50", "setting": "Rabbit", "result": 121, "unit": "mg/kg"}
    ]}
  ]
}
